This is an account of results in paper PMC8746574 (Molecules, 2022).

Read-outs that look alike come from different tables or passages of the source.

A short description of data set [1]: MTT cytotoxicity assay in TZM-bl cells. Format: cell-based. As to conditions: human; TZM-bl cells, MTT test, 72 h incubation. The protocol: (§1) The cytotoxicity of the obtained compounds was assessed in TZM-bl cells using the MTT test. The preparations were diluted with DMEM medium so that their starting concentration was 1000 μM and the final volume of DMSO was no more than 1%. Additionally, we compared the cytotoxicity of DMEM and medium with 1% DMSO in TZM-bl cells and found no significant differences in cell survival. […] A range of non-toxic concentrations was determined for each compound and used in subsequent experiments on their antiviral activity.
(§2) TZM-bl cells were seeded into 96-well culture plates (100 μL of cell suspension or 10^4 p cells per well) and placed in a CO2 incubator. The test compounds were dissolved in DMSO at a concentration of 100 mM. After 24 h of incubation, various concentrations of the test compounds (1000, 500, 250, 125, 62.5, 31.25, and 15.6 μM) were added by titration to the TZM-bl cell culture, in triplicates. DMSO was added to the control wells at a concentration of no more than 1%. The plates with the introduced drugs were incubated in a CO2 incubator at 37 °C under 5% CO2. After 72 h of incubation, 20 μL of MTT working solution (5 mg/mL) was added to each well and the plates were again incubated under the same conditions. After 2 h, the plates were removed from the CO2 incubator, and the medium in each well was replaced with DMSO solution (50 μL per well). The plates were shaken gently to dissolve the formazan crystals. The optical density of each well was determined at 570 nm using a Varioscan LUX plate reader (Thermo scientific). The survival rate of TZM-bl cells in the presence of the tested compounds was calculated using the formula: (OD of experimental wells—OD of medium)/(OD of control wells—OD of medium) × 100%, where OD is optical density.
A general note: Tetrazolium dyes change colour on reduction, which living cells bring about.

For data set [2], the system named is TZM-bl cells. In words: MTT cytotoxicity assay in TZM-bl cells. As to conditions: MTT test. It is filed as cell-based. The protocol:
as §1, §2

The test system of data set [3] is HIV-1 pseudotyped viruses. Description: Inhibitory activity against HIV-1 pseudoviruses in TZM-bl cells (summary statements). It is filed as cell-based. As to conditions: neutralizing assays, SF162.LS, QH0692, 16RU28. How it is done: To evaluate the inhibitory activities of the synthesized compounds, HIV-1 pseudotyped viruses SF162.LS and […] subtype B (which are included in the international reference panel), and pseudotyped viruses of the recombinant form CRF63_02A—16RU28 HIV-1 were used. Genetic variant CRF63_02A is currently the dominant type in Siberia and is rapidly spreading in the rest of the Russian Federation.
The anti-HIV-1 activity of the tested compounds was performed using the TZM-bl assay, carried out in 96-well culture plates, as described previously. Briefly, serial 2-fold dilutions of the tested compounds were prepared in DMEM growth medium, 200 TCID50 pseudovirus were added to each well and incubated for 1 h at 37 °C under 5% CO2. Trypsinized TZM-bl cell suspension was then added (100 μL of 2 × 10^5 cells/mL) and plates were further incubated at 37 °C under 5% CO2. After 48 h, the luminescence signal was recorded using the luciferase assay system (Promega). The percent inhibition for each compound was calculated as the ratio between the relative luminescence unit (RLU) values of the test wells (sample + pseudovirus + cells) and the virus control (pseudovirus + cells). Samples were tested in triplicates, and the experiment was repeated twice.

In data set [4] the test system is Vero E6 cells.
Data set [5] can be described thus: in vitro. As to conditions: African green monkey.
For data set [6], the system named is SARS-CoV-2 (three strains). Description: Antiviral activity against three strains of SARS-CoV-2 on Vero E6 cells (summary statements).
For data set [7], the system named is SARS-CoV-2 hCoV-19/Australia/VIC01/2020 (lineage B). Description: Reduction of cytopathic effect on Vero E6 cells, MTT, strain hCoV-19/Australia/VIC01/2020. Format: cell-based. On the technique in general: Damage to the host cells serves as the signal in cytopathic effect assays.
Data set [8] has as its system HIV-1 pseudotyped virus SF162.LS (subtype B). Description: TZM-bl neutralization assay with HIV-1 env-pseudovirus SF162.LS. It is filed as cell-based. As to conditions: read-out: IC50 SF162.LS, TZM-bl cells, luciferase after 48 h.
Data set [9] concerns HIV-1 pseudotyped virus OH0692 (subtype B). Description: TZM-bl neutralization assay with HIV-1 env-pseudovirus OH0692. Format: cell-based. As to conditions: read-out: IC50 OH0692; HIV-1 env-pseudovirus OH0692, TZM-bl cells, luciferase after 48 h.
The test system of data set [10] is HIV-1 pseudotyped virus 16RU28 (recombinant form CRF63_02A). Description: TZM-bl neutralization assay with HIV-1 env-pseudovirus 16RU28. It is filed as cell-based. As to conditions: read-out: IC50 16RU28; HIV-1 env-pseudovirus 16RU28 (CRF63_02A), TZM-bl cells, luciferase after 48 h.

In data set [1], `CC1(C)[C@@H](O[C@H]2O[C@H](C(=O)O)[C@@H](O)[C@H](O)[C@H]2O[C@@H]2O[C@H](C(=O)O)[C@@H](O)[C@H](O)[C@H]2O)CC[C@]2(C)[C@H]3C(=O)C=C4[C@@H]5C[C@@](C)(C(=O)O)CC[C@]5(C)CC[C@@]4(C)[C@]3(C)CC[C@@H]12` [Glycyrrhizin] registered a CC50 at 72 h of more than 1000 µM. Further, in [2], the “toxicity against the TZM-bl cell line (in words)” value is given as “negligible toxicity”. The “inhibitory activity against HIV-1 pseudotyped viruses (in words)” value in data set [3] is given as “did not exhibit any inhibitory activity”. Moreover, the “cytotoxicity on Vero cells (in words)” value in data set [4] is “no cytotoxicity”. The molecule also showed a CC50 in data set [5] of more than 1000 µM. In [6], the “antiviral activity against the three coronavirus strains (in words)” value is listed as “no antiviral activity”.

In [1], `CC1(C)C2CC[C@]3(C)C(C(=O)C=C4[C@@H]5C[C@@](C)(C(=O)O)CC[C@]5(C)CC[C@]43C)[C@@]2(C)CC[C@@H]1OC(=O)c1cccnc1` (stereo partly shown) [Nic-GA, glycyrrhetinic acid nicotinate] showed a CC50 at 72 h of less than 7.8 µM. In addition, the “toxicity against the TZM-bl cell line (in words)” value in data set [2] is “some cytotoxic activity”. Besides, in [3], the “inhibitory activity against HIV-1 pseudotyped viruses (in words)” value was “lack of inhibition”. In addition, the “cytotoxicity on Vero cells (in words)” value in data set [4] is “less toxic to Vero cells than to Tzm-bl cells”. In [5], this molecule registered a CC50 of 101 µM. The “antiviral activity against the three coronavirus strains (in words)” value in [6] is given as “did not exhibit any antiviral activity”.

In the case of `CCC(CC)COC(=O)[C@H](C)N[P@](=O)(OC[C@H]1O[C@@](C#N)(c2ccc3c(N)ncnn23)[C@H](O)[C@@H]1O)Oc1ccccc1` [Remdesivir], the IC50 in data set [7] (Severe acute respiratory syndrome coronavirus 2, Vero C1008, 96 h, Vero E6 cells, 100 TCD50 per well, 4 days, MTT, lineage B, read-out: IC50 hCoV-19/Aust/VIC01/2020) came to 3.3 ± 0.12 µM; in data set [7] (Vero C1008, SARS-CoV 2 (B), SOFTmax PRO 4.0, primary data, read-out: parameter C of 4-parameter fit, activity curve), 2020 µg/mL. Moreover, in data set [4] (SOFTmax PRO 4.0, primary data, plate with strain B), the “parameter C of 4-parameter fit, toxity curve” value was 428,695 µg/ml. The CC50 at 4 days in data set [5] (Vero E6 cells) amounted to 711 ± 21.2 µM.

With Maraviroc [MVC], the IC50 in [8] was 0.002 µM; in [9], 0.002 µM; in [10], 0.0016 µM.
